Numbers after ± are expanded uncertainties.
Experiment: xn = mol fraction of the nth substance listed
Conditions: Vibrating tube method

[Ar] [argon] + O=C=O
mass density [kg/m3]
Conditions	x2 = 0.9276	x2 = 0.9605
273.15 K, 1000 kPa, Gas	–	22.5 ± 0.2
273.15 K, 1001 kPa, Gas	21.2 ± 0.3	–
273.15 K, 2000 kPa, Gas	–	46.1 ± 0.3
273.15 K, 2001 kPa, Gas	44.2 ± 0.4	–
273.15 K, 3000 kPa, Gas	–	75.5 ± 0.4
273.15 K, 3001 kPa, Gas	72.9 ± 0.6	–
273.15 K, 3600 kPa, Gas	–	106.3 ± 0.6
273.15 K, 3800 kPa, Gas	104.5 ± 0.8	–
273.15 K, 4901 kPa, Liquid	–	893.5 ± 3.8
273.15 K, 5001 kPa, Liquid	–	894.8 ± 3.8
273.15 K, 5900 kPa, Liquid	881.4 ± 6.5	–
273.15 K, 6000 kPa, Liquid	880.2 ± 6.5	–
273.15 K, 6001 kPa, Liquid	–	905.7 ± 3.8
273.15 K, 7000 kPa, Liquid	–	915.5 ± 3.8
273.15 K, 7001 kPa, Liquid	886.5 ± 6.5	–
273.15 K, 8001 kPa, Liquid	898 ± 6.6	924 ± 3.8
273.15 K, 9001 kPa, Liquid	907.8 ± 6.6	–
273.15 K, 9002 kPa, Liquid	–	932.1 ± 3.9
273.15 K, 10001 kPa, Liquid	917.3 ± 6.7	–
273.15 K, 10002 kPa, Liquid	–	939.5 ± 3.9
273.15 K, 11001 kPa, Liquid	925.5 ± 6.8	–
273.15 K, 11002 kPa, Liquid	–	946.4 ± 3.9
273.15 K, 12000 kPa, Liquid	933.4 ± 6.8	952.9 ± 3.9
273.15 K, 13000 kPa, Liquid	940.6 ± 6.9	959.1 ± 3.9
273.15 K, 14000 kPa, Liquid	–	965 ± 4
273.15 K, 14002 kPa, Liquid	947.4 ± 6.9	–
273.15 K, 15000 kPa, Liquid	953.8 ± 7	–
273.15 K, 15001 kPa, Liquid	–	970.6 ± 4
273.15 K, 16001 kPa, Liquid	959.9 ± 7	975.9 ± 4
273.15 K, 17000 kPa, Liquid	965.7 ± 7	–
273.15 K, 17002 kPa, Liquid	–	981 ± 4.1
273.15 K, 18001 kPa, Liquid	971.2 ± 7.1	986 ± 4
273.15 K, 19001 kPa, Liquid	976.5 ± 7.1	–
273.15 K, 19003 kPa, Liquid	–	990.8 ± 4
273.15 K, 20000 kPa, Liquid	981.5 ± 7.2	–
273.15 K, 20001 kPa, Liquid	–	995.3 ± 4.1
283.15 K, 1001 kPa, Gas	20.1 ± 0.3	20.9 ± 0.2
283.15 K, 2000 kPa, Gas	42.2 ± 0.4	43.1 ± 0.3
283.15 K, 3001 kPa, Gas	68.4 ± 0.6	69.6 ± 0.4
283.15 K, 4000 kPa, Gas	–	104.2 ± 0.5
283.15 K, 4001 kPa, Gas	101.2 ± 0.8	–
283.15 K, 4701 kPa, Gas	–	144.6 ± 0.8
283.15 K, 5000 kPa, Gas	151.6 ± 1.2	–
283.15 K, 5010 kPa, Gas	153 ± 1.2	–
283.15 K, 5060 kPa, Gas	161.6 ± 1.2	–
283.15 K, 6000 kPa, Liquid	–	827.6 ± 3.9
283.15 K, 7001 kPa, Liquid	–	844.5 ± 3.8
283.15 K, 7301 kPa, Liquid	801.8 ± 6.1	–
283.15 K, 8001 kPa, Liquid	816.3 ± 6.1	859.1 ± 3.7
283.15 K, 9001 kPa, Liquid	833.9 ± 6.2	871.9 ± 3.8
283.15 K, 10001 kPa, Liquid	848.6 ± 6.3	883.2 ± 3.7
283.15 K, 11001 kPa, Liquid	861.6 ± 6.4	893.1 ± 3.7
283.15 K, 12001 kPa, Liquid	873 ± 6.4	902.4 ± 3.7
283.15 K, 13000 kPa, Liquid	–	910.9 ± 3.8
283.15 K, 13002 kPa, Liquid	883.5 ± 6.5	–
283.15 K, 14000 kPa, Liquid	892.6 ± 6.5	–
283.15 K, 14001 kPa, Liquid	–	918.7 ± 3.8
283.15 K, 15001 kPa, Liquid	901.4 ± 6.6	–
283.15 K, 15003 kPa, Liquid	–	926 ± 3.8
283.15 K, 16001 kPa, Liquid	909.4 ± 6.7	932.8 ± 3.8
283.15 K, 17000 kPa, Liquid	–	939.4 ± 3.8
283.15 K, 17001 kPa, Liquid	916.9 ± 6.7	–
283.15 K, 18000 kPa, Liquid	924.1 ± 6.8	945.6 ± 3.9
283.15 K, 19001 kPa, Liquid	930.8 ± 6.8	–
283.15 K, 19002 kPa, Liquid	–	951.6 ± 3.9
283.15 K, 20001 kPa, Liquid	937.2 ± 6.8	–
283.15 K, 20003 kPa, Liquid	–	957.3 ± 3.9
293.15 K, 1000 kPa, Gas	19.9 ± 0.3	–
293.15 K, 1001 kPa, Gas	–	20.4 ± 0.2
293.15 K, 2000 kPa, Gas	–	41 ± 0.3
293.15 K, 2001 kPa, Gas	40.6 ± 0.4	–
293.15 K, 3000 kPa, Gas	64.4 ± 0.5	–
293.15 K, 3001 kPa, Gas	–	65 ± 0.3
293.15 K, 4000 kPa, Gas	92.6 ± 0.7	–
293.15 K, 4001 kPa, Gas	–	94.2 ± 0.4
293.15 K, 5000 kPa, Gas	128.2 ± 1	–
293.15 K, 5001 kPa, Gas	–	132.6 ± 0.6
293.15 K, 6000 kPa, Gas	–	198 ± 0.9
293.15 K, 6001 kPa, Gas	179 ± 2.2	–
293.15 K, 6601 kPa, Gas	253.1 ± 2.5	–
293.15 K, 7151 kPa, Liquid	–	728.4 ± 3.7
293.15 K, 8002 kPa, Liquid	–	765.2 ± 3.5
293.15 K, 8201 kPa, Liquid	680.3 ± 5.2	–
293.15 K, 9001 kPa, Liquid	726.1 ± 5.8	790.8 ± 3.5
293.15 K, 10001 kPa, Liquid	760.3 ± 5.8	811.1 ± 3.5
293.15 K, 11001 kPa, Liquid	785 ± 5.9	827.5 ± 3.5
293.15 K, 12000 kPa, Liquid	–	841.6 ± 3.6
293.15 K, 12002 kPa, Liquid	804.5 ± 6	–
293.15 K, 13000 kPa, Liquid	–	853.5 ± 3.6
293.15 K, 13003 kPa, Liquid	820.2 ± 6.1	–
293.15 K, 14001 kPa, Liquid	–	864.3 ± 3.6
293.15 K, 14002 kPa, Liquid	834.1 ± 6.3	–
293.15 K, 15000 kPa, Liquid	846.1 ± 6.2	–
293.15 K, 15001 kPa, Liquid	–	874.3 ± 3.6
293.15 K, 16001 kPa, Liquid	857.1 ± 6.3	–
293.15 K, 16002 kPa, Liquid	–	883.4 ± 3.6
293.15 K, 17002 kPa, Liquid	867.1 ± 6.4	891.9 ± 3.6
293.15 K, 18000 kPa, Liquid	876.3 ± 6.4	–
293.15 K, 18001 kPa, Liquid	–	899.7 ± 3.7
293.15 K, 19001 kPa, Liquid	884.9 ± 6.5	906.9 ± 3.7
293.15 K, 20001 kPa, Liquid	892.9 ± 6.5	913.8 ± 3.7
